Assay results published in PubChem BioAssay AID330 (DTP/NCI, 2004).
Several values for one entry are separate records, joined by “and”; a condition that tells them apart may be missing. Equal entries are not always repeated. Inconclusive results and toxic doses are left out. Rule for the calls: active = survival T/C of 150% or more; inactive = T/C below 125% in these data.

Tested on: P388 leukemia ip, CD2F1 mice, survival T/C
Test: NCI In Vivo Anticancer Drug Screen. Data for tumor model P388 Leukemia (intraperitoneal) in CD2F1 (CDF1) mice
Details: endpoint: median survival time, higher = longer survival
Outline: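 Mice carrying the transplanted tumor received test compound or vehicle. Survival was recorded in each group, and the value is the treated-group measurement divided by that of the vehicle-treated control group.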

[1] = dose: 60.0 mg/kg/injection, schedule: Q01DX005 (ip), vehicle: Klucel (hydroxypropylcellulose) (HPC)
[2] = dose: 120.0 mg/kg/injection, schedule: Q01DX005 (ip), vehicle: Klucel (hydroxypropylcellulose) (HPC)
[3] = dose: 240.0 mg/kg/injection, schedule: Q01DX005 (ip), vehicle: Klucel (hydroxypropylcellulose) (HPC)
[4] = dose: 60.0 mg/kg/injection, schedule: Q01DX005 (ip), vehicle: saline with Tween-80
[5] = dose: 120.0 mg/kg/injection, schedule: Q01DX005 (ip), vehicle: saline with Tween-80
[6] = dose: 240.0 mg/kg/injection, schedule: Q01DX005 (ip), vehicle: saline with Tween-80
[7] = dose: 32.0 mg/kg/injection, schedule: Q01DX009 (ip), vehicle: saline with Tween-80
[8] = dose: 64.0 mg/kg/injection, schedule: Q01DX009 (ip), vehicle: saline with Tween-80
[9] = dose: 100.0 mg/kg/injection, schedule: Q04DX003 (ip), vehicle: saline with Tween-80
[10] = dose: 50.0 mg/kg/injection, schedule: Q01DX005 (ip), vehicle: Klucel (hydroxypropylcellulose) (HPC)
[11] = dose: 100.0 mg/kg/injection, schedule: Q01DX005 (ip), vehicle: Klucel (hydroxypropylcellulose) (HPC)
[12] = dose: 200.0 mg/kg/injection, schedule: Q01DX005 (ip), vehicle: Klucel (hydroxypropylcellulose) (HPC)

Measured: T/C

O=C(O)c1c(Cl)nc2n1CCS2
inactive: dose: 50.0 mg/kg/injection, schedule: Q01DX001 (ip), vehicle: Klucel (hydroxypropylcellulose) (HPC) 97 % of control | dose: 100.0 mg/kg/injection, schedule: Q01DX001 (ip), vehicle: Klucel (hydroxypropylcellulose) (HPC) 101 % of control | dose: 200.0 mg/kg/injection, schedule: Q01DX001 (ip), vehicle: Klucel (hydroxypropylcellulose) (HPC) 104 % of control

Cc1cc(NCCCCCCCCNc2cc(C)nc3cc([N+](=O)[O-])ccc23)c2ccc([N+](=O)[O-])cc2n1
inactive: dose: 12.5 mg/kg/injection, schedule: Q01DX009 (ip), vehicle: water 110 % of control | dose: 25.0 mg/kg/injection, schedule: Q01DX009 (ip), vehicle: water 101 % of control

S=C(N/N=C\c1c[nH]c2ccc(Br)cc12)NC12CC3CC(CC(C3)C1)C2
inactive: [1] 98 % of control | [2] 93 % of control | [3] 98 % of control

N/N=C1\c2ccccc2-c2cccc(O)c21
inactive: dose: 7.5 mg/kg/injection, schedule: Q01DX005 (ip), vehicle: saline with Tween-80 101 % of control | dose: 15.0 mg/kg/injection, schedule: Q01DX005 (ip), vehicle: saline with Tween-80 97 % of control | dose: 30.0 mg/kg/injection, schedule: Q01DX005 (ip), vehicle: saline with Tween-80 93 % of control

CN=c1s[se]c2ccccc12
inactive: dose: 12.5 mg/kg/injection, schedule: Q01DX009 (ip), vehicle: Klucel (hydroxypropylcellulose) (HPC) 102 % of control | dose: 25.0 mg/kg/injection, schedule: Q01DX009 (ip), vehicle: Klucel (hydroxypropylcellulose) (HPC) 94 % of control

COC1=CCC(CCNC(=O)c2cc3c(cc2[N+](=O)[O-])OCO3)=CC1
inactive: [4] 101 % of control | [5] 93 % of control | [6] 98 % of control

CCCNN1CCN(c2ccncc2S(=O)(=O)N2CCCCC2)CC1
inactive: [1] 98 % of control | [2] 99 % of control | [3] 94 % of control

N#CCCn1nc(SC2CCCCC2)c(=O)[nH]c1=O
inactive: dose: 25.0 mg/kg/injection, schedule: Q01DX005 (ip), vehicle: water 108 % of control | dose: 50.0 mg/kg/injection, schedule: Q01DX005 (ip), vehicle: water 103 % of control | dose: 100.0 mg/kg/injection, schedule: Q01DX005 (ip), vehicle: water 98 % of control | dose: 200.0 mg/kg/injection, schedule: Q01DX005 (ip), vehicle: water 108 % of control

Cc1cn(C2CC(O)C(CO)O2)c(=O)[nH]c1=O (stereo not drawn)
inactive: dose: 16.0 mg/kg/injection, schedule: Q01DX009 (ip), vehicle: saline 100 % of control and 105 % of control | [7] 109 % of control | [8] 101 % of control | dose: 128.0 mg/kg/injection, schedule: Q01DX009 (ip), vehicle: saline with Tween-80 101 % of control | dose: 150.0 mg/kg/injection, schedule: Q02HX012 (ip), vehicle: saline 96 % of control | dose: 150.0 mg/kg/injection, schedule: Q04DX012 (ip), vehicle: saline 104 % of control | dose: 200.0 mg/kg/injection, schedule: Q02HX012 (ip), vehicle: saline 98 % of control | dose: 200.0 mg/kg/injection, schedule: Q04DX012 (ip), vehicle: saline 102 % of control | dose: 250.0 mg/kg/injection, schedule: Q01DX001 (ip), vehicle: saline 98 % of control | dose: 250.0 mg/kg/injection, schedule: Q01DX009 (ip), vehicle: saline 100 % of control | dose: 256.0 mg/kg/injection, schedule: Q01DX009 (ip), vehicle: saline with Tween-80 89 % of control | dose: 300.0 mg/kg/injection, schedule: Q02HX012 (ip), vehicle: saline 101 % of control | dose: 300.0 mg/kg/injection, schedule: Q04DX012 (ip), vehicle: saline 100 % of control | dose: 375.0 mg/kg/injection, schedule: Q01DX009 (ip), vehicle: saline 107 % of control and 95 % of control | dose: 400.0 mg/kg/injection, schedule: Q02HX012 (ip), vehicle: saline 109 % of control | dose: 400.0 mg/kg/injection, schedule: Q04DX012 (ip), vehicle: saline 105 % of control | dose: 500.0 mg/kg/injection, schedule: Q01DX001 (ip), vehicle: saline 98 % of control | dose: 512.0 mg/kg/injection, schedule: Q01DX009 (ip), vehicle: saline with Tween-80 108 % of control | dose: 512.0 mg/kg/injection, schedule: Q01DX009 (ip), vehicle: saline 99 % of control and 102 % of control | dose: 600.0 mg/kg/injection, schedule: Q02HX012 (ip), vehicle: saline 108 % of control | dose: 600.0 mg/kg/injection, schedule: Q04DX012 (ip), vehicle: saline 102 % of control | dose: 750.0 mg/kg/injection, schedule: Q01DX009 (ip), vehicle: saline 115 % of control and 97 % of control | dose: 1000.0 mg/kg/injection, schedule: Q01DX009 (ip), vehicle: saline 101 % of control and 103 % of control and 110 % of control | dose: 1500.0 mg/kg/injection, schedule: Q01DX009 (ip), vehicle: saline 108 % of control

CCCCCCCCCCCCCCCCCC(=O)CS(C)(=O)=O
inactive: dose: 50.0 mg/kg/injection, schedule: Q01DX009 (ip), vehicle: suspension in saline 100 % of control | dose: 100.0 mg/kg/injection, schedule: Q01DX009 (ip), vehicle: suspension in saline 100 % of control | dose: 200.0 mg/kg/injection, schedule: Q01DX009 (ip), vehicle: suspension in saline 97 % of control

C[n+]1cccc(C2=CCCC2)c1
inactive: dose: 3.13 mg/kg/injection, schedule: Q01DX009 (ip), vehicle: saline 109 % of control | dose: 6.25 mg/kg/injection, schedule: Q01DX009 (ip), vehicle: saline 100 % of control | dose: 12.5 mg/kg/injection, schedule: Q01DX009 (ip), vehicle: saline 100 % of control | dose: 12.5 mg/kg/injection, schedule: Q04DX003 (ip), vehicle: water 102 % of control | dose: 25.0 mg/kg/injection, schedule: Q01DX009 (ip), vehicle: saline 100 % of control | dose: 25.0 mg/kg/injection, schedule: Q04DX003 (ip), vehicle: saline with Tween-80 93 % of control | dose: 25.0 mg/kg/injection, schedule: Q04DX003 (ip), vehicle: water 97 % of control | dose: 50.0 mg/kg/injection, schedule: Q04DX003 (ip), vehicle: saline with Tween-80 92 % of control | [9] 97 % of control | dose: 200.0 mg/kg/injection, schedule: Q04DX003 (ip), vehicle: saline with Tween-80 105 % of control

Oc1ccc(N=Nc2c(-c3ccccc3)nn(C(=S)S)c2-c2ccccc2)cc1
inactive: dose: 50.0 mg/kg/injection, schedule: Q01DX005 (ip), vehicle: saline with Tween-80 103 % of control | dose: 100.0 mg/kg/injection, schedule: Q01DX005 (ip), vehicle: saline with Tween-80 102 % of control | dose: 200.0 mg/kg/injection, schedule: Q01DX005 (ip), vehicle: saline with Tween-80 101 % of control

Cc1cc(C(O)(C(F)(F)F)C(F)(F)F)cc(C(O)(C(F)(F)F)C(F)(F)F)c1
inactive: [10] 100 % of control | [11] 91 % of control | [12] 97 % of control

CC(=C\C=N\N(C)c1ccccc1)/C=C1\Cc2ccccc2C1=O
inactive: dose: 100.0 mg/kg/injection, schedule: Q04DX003 (ip), vehicle: Klucel (hydroxypropylcellulose) (HPC) 99 % of control | dose: 200.0 mg/kg/injection, schedule: Q04DX003 (ip), vehicle: Klucel (hydroxypropylcellulose) (HPC) 97 % of control | dose: 400.0 mg/kg/injection, schedule: Q04DX003 (ip), vehicle: Klucel (hydroxypropylcellulose) (HPC) 96 % of control

CCC(O)C1(C#Cc2ccccc2)Sc2ccccc2N1C (stereo not drawn)
inactive: [4] 107 % of control | [5] 110 % of control | [6] 110 % of control

COc1cc(C(=O)N2C3C4CCC(C)(OC4(C)C)C32)cc(OC)c1OC (stereo not drawn)
inactive: [10] 95 % of control | [11] 97 % of control | [12] 94 % of control

Cc1ccc(S(=O)CF)cc1 (stereo not drawn)
inactive: [9] 107 % of control

O=C1CC2COc3ccccc3C2=NN1c1ccccc1 (stereo not drawn)
inactive: [4] 105 % of control | [5] 94 % of control | [6] 91 % of control

C=C(C)C1CC/C(C)=C/CCC2(C)OC2CC/C(CO)=C\C1O (stereo not drawn)
inactive: dose: 8.0 mg/kg/injection, schedule: Q01DX009 (ip), vehicle: saline with Tween-80 113 % of control | dose: 16.0 mg/kg/injection, schedule: Q01DX009 (ip), vehicle: saline with Tween-80 114 % of control | [7] 110 % of control | [8] 115 % of control
